According to patent US20210032257A1, “(E)-1-(4-(DIMETHYLAMINO)BUT-2-ENOYL)PYRROLIDIN-3-YL 4-((3-ISOPROPYL-5-METHYLPYRAZOLO[1,5-A]PYRIMIDIN-7-YL)AMINO)PIPERIDINE-1-CARBOXYLATE FOR INHIBITING CDK7” (Eli Lilly and Company, priority 2017, published 2021):

How the values were obtained:
COLO205 xenograft = assay: Xenograft Tumor Model; type: in vivo, mice; settings: COLO205, Colorectal; 20 mg/kg PO QDx28
Experimental: (§1) To evaluate in vivo efficacy of a test compound, multiple xenograft tumor models are utilized. Briefly, 5-10×10^6 tumor cells in a 1:1 MATRIGEL® mix (0.2 mL total volume) are injected subcutaneously into the female athymic nude mice (Envigo, Harlan laboratories) for a majority of xenograft tumor models. Alternate mice strains are utilized to establish MDAMB468 (NOD SCID Gamma, Jackson labs), CT26 and EMT6 (BALB/c, Envigo, Harlan Laboratories) xenografts. After allowing tumors to reach a desired size of ˜300-500 mm^3, animals are randomized into groups of 6-8 for efficacy studies. Test compound is administered via oral gavage (PO) at indicated doses and regimens. Tumor growth and body weight are monitored over time to evaluate efficacy and signs of toxicity.
(§2) Test compound is formulated in 5% N-methyl-2-pyrrolidone (NMP) in 1% hydroxyethylcellulose, 0.25% polysorbate 80, 0.05% antifoam in purified water (HEC) and administered by oral gavage (final volume 0.2 mL) at the doses indicated in Table 4. A test compound is formulated on a weekly basis and stored at 4° C. Vehicles are administered to the control groups according the schedules used above using a volume of 0.2 mL per dose. Mice are dosed via oral gavage and tumor samples are collected at termination and stored at −80° C.
(§3) Tumor size and body weight are recorded and analyzed bi-weekly. Blood is collected using DBS (dried blood spot) card 2 hours after dose and at termination. Tumors are collected at study termination, cut into 3 sections and either snap frozen for exposure and protein analysis, or placed in RNAlater® for RNA analysis. Tissue samples are frozen and stored at −80° C.
(§4) Delta T/C % is calculated when the endpoint tumor volume in a treated group is at or above baseline tumor volume. The formula is 100*(T−T0)/(C−C0). Here, T and C are mean endpoint tumor volumes in the treated or control group, respectively. TO and CO are mean baseline tumor volumes in those groups. *: Significant (p<0.05)

HCC1806 xenograft = assay: Xenograft Tumor Model; type: in vivo, mice; settings: HCC1806, Breast, KMT2C; 20 mg/kg PO QDx28
Experimental: as §1, §2, §3, §4

SW626 = assay: Biomarker study proliferation (CellTiter-Glo); type: cell-based
Experimental: (§5) Cancer cell lines are profiled to evaluate the anti-proliferative activity of a test compound in-vitro. Mutation, copy number and gene expression information of ARID1A, KMT2C, KMT2D and/or RB1 genes across cancer cell lines is obtained from COSMIC database (cancer.sanger.ac.uk) and cBioportal (http://www.cbioportal.org/). Cells are cultured in growth medium and plated into a 96-well plate in 100 μL/well growth medium at 5000 cells/well then incubated at 37° C., 5% CO2 overnight. Cells are cultured using supplier recommended media and conditions well known in the art, for example with RPMI 1640 with or without HEPES & L-Glutamine (Thermo SH30255.01) and 1 mM Sodium Pyruvate, and 10% FBS(Gibco cat #10082). The 1000× intermediate dilution plate is prepared by making a 10 mM working solution of a test sample in DMSO and performing 1:3 dilutions in DMSO for 10 points. The 10× dosing plate is prepared by adding 2 μL from the 1000× intermediate dilution plate to 198 μL of OPTIMEM®+10% FBS and mixing well. The cell plate is then treated by adding 11 μL from the 10× dosing plate into the 100 μL/well cell plate for a 1× final concentration. Staurosporine is used as a maximum growth inhibition control at a final concentration of 5 μM. The cell plate is incubated for 7 days at 37° C., 5% CO2. Seven days after treatment, Cell Titer-Glo® (Promega cat #G7571) assay buffer and substrate are removed from −20° C. and allowed to equilibrate to RT. Assay buffer is added to the substrate and swirled gently to mix. The CELL TITER-GLO® reagent (100 μL/well) is added to the cell plate and incubated at RT for 15 minutes. After 15 minutes, luminescence is read using a plate reader. Data is analyzed in Excel and graphed in GraphPad Prism. Statistical analysis and p value is calculated using Mann-Whitney nonparameteric t tests using GraphPad Prism.
(§6) Anti-proliferative effects of a test compound are categorized as insensitive (IC50≥1 μM), cytostatic (IC50<1 μM and % inhibition <70%) or cytotoxic (IC50<1 μM and % inhibition ≥70%).

HCC44 = assay: Biomarker study proliferation (CellTiter-Glo); type: cell-based
Experimental: as §5, §6

KYSE30 = assay: Biomarker study proliferation (CellTiter-Glo); type: cell-based
Experimental: as §5, §6

JURKAT = assay: Biomarker study proliferation (CellTiter-Glo); type: cell-based
Experimental: as §5, §6

K562 = assay: Biomarker study proliferation (CellTiter-Glo); type: cell-based
Experimental: as §5, §6

Raw264.7 = assay: Biomarker study proliferation (CellTiter-Glo); type: cell-based
Experimental: as §5, §6

NCIH209 = assay: Biomarker study proliferation (CellTiter-Glo); type: cell-based
Experimental: as §5, §6

[1] = system: KMT2C mutants cancer cell lines; assay: Biomarker study: distribution of anti-proliferation effects; type: cell-based
Experimental: as §5, §6

[2] = system: Others (cancer cell lines); assay: as above; type: cell-based
Experimental: as §5, §6

[3] = system: KMT2D mutants cancer cell lines; assay: as above; type: cell-based
Experimental: as §5, §6

[4] = system: ARID1A mutants cancer cell lines; assay: as above; type: cell-based
Experimental: as §5, §6

[5] = system: RB1 mutants cancer cell lines; assay: as above; type: cell-based
Experimental: as §5, §6

Cc1cc(NC2CCN(C(=O)O[C@H]3CCN(C(=O)/C=C/CN(C)C)C3)CC2)n2ncc(C(C)C)c2n1 [Example 1, [(3S)-1-[(E)-4-(dimethylamino)but-2-enoyl]pyrrolidin-3-yl] 4-[(3-isopropyl-5-methyl-pyrazolo[1,5-a]pyrimidin-7-yl)amino]piperidine-1-carboxylate]
Avg. ΔT/C (COLO205 xenograft): −4% | Avg. ΔT/C (HCC1806 xenograft): −87% | IC50 (SW626; Homo sapiens, SW626, 168 h, read-out: Anti-proliferation effect IC50): 1100 nM | Anti-proliferation effect % Inh. (SW626; SW626, 7 days): 39% | Anti-proliferation effect Outcome (SW626; SW626, 7 days): Insensitive (insensitive (IC50≥1 μM)) | Anti-proliferation effect % Inh. (HCC44; HCC44, LUNG, 7 days): 48% | Anti-proliferation effect Outcome (HCC44; HCC44, LUNG, 7 days): Cytostatic (cytostatic (IC50<1 μM and % inhibition <70%)) | IC50 (HCC44; Homo sapiens, HCC44, 168 h, read-out: Anti-proliferation effect IC50): 131 nM | IC50 (KYSE30; Homo sapiens, KYSE-30, 168 h, read-out: Anti-proliferation effect IC50): 76 nM | Anti-proliferation effect % Inh. (KYSE30; KYSE30, OESOPHAGUS, 7 days): 76% | Anti-proliferation effect Outcome (KYSE30; KYSE30, OESOPHAGUS, 7 days): Cytotoxic (cytotoxic (IC50<1 μM and % inhibition ≥70%)) | IC50 (JURKAT; Homo sapiens, Jurkat, 168 h, read-out: Anti-proliferation effect IC50): 61 nM | Anti-proliferation effect % Inh. (JURKAT; JURKAT, BLOOD, 7 days): 98% | Anti-proliferation effect Outcome (JURKAT; JURKAT, BLOOD, 7 days): Cytotoxic (cytotoxic (IC50<1 μM and % inhibition ≥70%)) | IC50 (K562; Homo sapiens, K562, 168 h, read-out: Anti-proliferation effect IC50): > 10000 nM | Anti-proliferation effect % Inh. (K562; K562, BLOOD, 7 days): −191% | Anti-proliferation effect Outcome (K562; K562, BLOOD, 7 days): Insensitive (insensitive (IC50≥1 μM)) | IC50 (Raw264.7; Mus musculus, RAW264.7, 168 h, read-out: Anti-proliferation effect IC50): 355 nM | Anti-proliferation effect % Inh. (Raw264.7; Raw264.7, 7 days): 62% | Anti-proliferation effect Outcome (Raw264.7; Raw264.7, 7 days): Cytostatic (cytostatic (IC50<1 μM and % inhibition <70%)) | IC50 (NCIH209; Homo sapiens, NCI-H209, 168 h, read-out: Anti-proliferation effect IC50): 40 nM | Anti-proliferation effect % Inh. (NCIH209; NCIH209, LUNG, 7 days): 83% | Anti-proliferation effect Outcome (NCIH209; NCIH209, LUNG, 7 days): Cytotoxic (cytotoxic (IC50<1 μM and % inhibition ≥70%)) | Distribution (%) of anti-proliferation effects: Cytotoxic (IC50 <1 μM, % Inh. ≥70) [1]: 70%, n = 7 | Distribution (%) of anti-proliferation effects: Cytotoxic (IC50 <1 μM, % Inh. ≥70) [2]: 40%, n = 41 | Distribution (%) of anti-proliferation effects: Cytotoxic (IC50 <1 μM, % Inh. ≥70) [3]: 76%, n = 19 | Distribution (%) of anti-proliferation effects: Cytotoxic (IC50 <1 μM, % Inh. ≥70) [4]: 64%, n = 25 | Distribution (%) of anti-proliferation effects: Cytotoxic (IC50 <1 μM, % Inh. ≥70) [5]: 54%, n = 22
